According to US12428442B2, “Compounds, compositions and methods for synthesis” (WAVE LIFE SCIENCES LTD., priority 2017, dated 2025):

Assay: Measuring pKa value of amino alcohols by titration against NaOH in MDA/KCl
Details: MDA = Methanol-Dioxane-Acetonitrile, 1:1:1
Method: To this clear solution was added 6 μL of con. HCl and stirred well. This solution was titrated against 1 M NaOH solution. NaOH solution was added in 2 (or 4) ml increments. During the addition of each increment of NaOH solution, pH of the solution was recorded using a pH meter until a pH of 12 was measured. The measured titration values were analyzed (graph pad software was used) to determine the first derivative of the volume of NaOH used in the titration. This first derivative value is the pKa of the amino alcohol.

C[Si](C[C@H](O)[C@H]1CCCN1)(C1CCCCC1)C1CCCCC1 [WV-CA-041-D]
solubility of sample in MDA mixture: Sample Insoluble in MDA

C[Si](C[C@@H](O)[C@@H]1CCCN1)(C1CCCCC1)C1CCCCC1 [WV-CA-041-L]
solubility of sample in MDA mixture: Sample Insoluble in MDA

C[Si](C[C@@H](O)[C@@H]1CCCCN1)(C1CCCCC1)C1CCCCC1 [WV-CA-045]
solubility of sample in MDA mixture: Insoluble in MDA mixture

C[Si](C[C@H](O)[C@@H]1CCCCN1)(C1CCCCC1)C1CCCCC1 [WV-CA-046]
solubility of sample in MDA mixture: Insoluble in MDA mixture
